Assay results from patent US20210395239A1 (Hoffmann-La Roche Inc., priority 2018, published 2021).

Each compound was assayed against T1, hTLR9 (Homo sapiens, UniProt Q9NR96) (assay: HEK293-Blue-hTLR-9 cells assay (SEAP reporter, ODN2006 stimulation)). Conditions: HEK293-Blue-hTLR9 cells, ODN2006, 20 hrs; read-out: HEK/hTLR9 IC50.
T1 sequence (Q9NR96 26-1032): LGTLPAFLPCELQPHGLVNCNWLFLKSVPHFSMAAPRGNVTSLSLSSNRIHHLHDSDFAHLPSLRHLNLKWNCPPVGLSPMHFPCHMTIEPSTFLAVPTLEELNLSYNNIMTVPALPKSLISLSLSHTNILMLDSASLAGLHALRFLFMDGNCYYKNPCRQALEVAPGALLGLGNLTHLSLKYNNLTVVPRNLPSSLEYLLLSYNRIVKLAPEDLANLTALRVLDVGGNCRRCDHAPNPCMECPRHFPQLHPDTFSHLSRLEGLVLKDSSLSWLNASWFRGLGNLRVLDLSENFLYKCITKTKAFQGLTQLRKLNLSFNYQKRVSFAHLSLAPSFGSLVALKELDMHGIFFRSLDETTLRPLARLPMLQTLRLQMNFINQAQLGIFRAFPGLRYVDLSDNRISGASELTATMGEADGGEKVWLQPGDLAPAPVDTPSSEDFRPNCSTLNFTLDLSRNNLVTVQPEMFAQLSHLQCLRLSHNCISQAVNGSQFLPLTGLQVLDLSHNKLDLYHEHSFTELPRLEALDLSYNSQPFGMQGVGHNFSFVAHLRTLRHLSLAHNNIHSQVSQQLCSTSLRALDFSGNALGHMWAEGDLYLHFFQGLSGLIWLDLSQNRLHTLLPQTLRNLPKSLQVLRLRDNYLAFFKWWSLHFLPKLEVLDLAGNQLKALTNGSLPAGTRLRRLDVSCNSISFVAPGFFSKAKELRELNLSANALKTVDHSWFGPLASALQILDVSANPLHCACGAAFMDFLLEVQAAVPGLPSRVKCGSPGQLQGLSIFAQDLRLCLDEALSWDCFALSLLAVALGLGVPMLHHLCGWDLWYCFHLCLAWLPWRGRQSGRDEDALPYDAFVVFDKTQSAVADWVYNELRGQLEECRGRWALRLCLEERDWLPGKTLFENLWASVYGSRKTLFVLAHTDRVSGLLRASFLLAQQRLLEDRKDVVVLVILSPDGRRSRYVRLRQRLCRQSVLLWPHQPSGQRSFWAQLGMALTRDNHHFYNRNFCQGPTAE
Format: cell-based
Set-up: host or cells: HEK293 (HEK-Blue hTLR9)
Text: HEK293-Blue-hTLR-9 Cells Assay:
A stable HEK293-Blue-hTLR-9 cell line was purchased from InvivoGen (Cat. #: hkb-htlr9, San Diego, Calif., USA). These cells were originally designed for studying the stimulation of human TLR9 by monitoring the activation of NF-κB. A SEAP (secreted embryonic alkaline phosphatase) reporter gene was placed under the control of the IFN-β minimal promoter fused to five NF-κB and AP-1-binding sites. The SEAP was induced by activating NF-κB and AP-1 via stimulating HEK-Blue hTLR9 cells with TLR9 ligands. Therefore the reporter expression was declined by TLR9 antagonist under the stimulation of a ligand, such as ODN2006 (Cat. #: tlrl-2006-1, Invivogen, San Diego, Calif., USA), for incubation of 20 hrs. The cell culture supernatant SEAP reporter activity was determined using QUANTI-Blue™ kit (Cat. #: rep-qb1, Invivogen, San Diego, Calif., USA) at a wavelength of 640 nm, a detection medium that turns purple or blue in the presence of alkaline phosphatase.
HEK293-Blue-hTLR9 cells were incubated at a density of 250,000˜450,000 cells/mL in a volume of 170 μL in a 96-well plate in Dulbecco's Modified Eagle's medium (DMEM) containing 4.5 g/L glucose, 50 U/mL penicillin, […], 2 mM L-glutamine, 10% (v/v) heat-inactivated fetal bovine serum with addition of 20 μL test compound in a serial dilution in the presence of final DMSO at 1% and 10 μL of 20 uM ODN2006 in above DMEM, perform incubation under 37° C. in a CO2 incubator for 20 hrs. Then 20 μL of the supernatant from each well was incubated with 180 μL Quanti-blue substrate solution at 37° C. for 2 h and the absorbance was read at 620-655 nm using a spectrophotometer. The signaling pathway that TLR9 activation leads to downstream NF-κB activation has been widely accepted, and therefore similar reporter assay was modified for evaluating TLR9 antagonist.

| Compound | IC50 [nM] |
| --- | --- |
| COC1CN(c2nccc(N3CCN(C[C@H]4CN(c5ccc(C#N)c6ncccc56)C[C@@H](C)O4)CC3)n2)CC1N (stereo in doubt) [Example 93, 5-[(2S,6R)-2-[[4-[2-[(3R,4S)-3-amino-4-methoxy-pyrrolidin-1-yl]pyrimidin-4-yl]piperazin-1-yl]methyl]-6-methyl-morpholin-4-yl]quinoline-8-carbonitrile] | 31 |
| C[C@@H]1CN(c2ccc(C#N)c3ncccc23)C[C@H](CN2CCC(c3cccc(N4CCNCC4)c3)C2)O1 (stereo partly drawn) [Example 1, 5-[(2R,6S)-2-methyl-6-[[3-(3-piperazin-1-ylphenyl)pyrrolidin-1-yl]methyl]morpholin-4-yl]quinoline-8-carbonitrile] | 136 |
| C[C@@H]1CN(c2ccc(C#N)c3ncccc23)C[C@H](CN2CCC(c3cccc(C4CCNCC4)c3)CC2)O1 [Example 2, 5-[(2R,6S)-2-methyl-6-[[4-[3-(4-piperidyl)phenyl]-1-piperidyl]methyl]morpholin-4-yl]quinoline-8-carbonitrile] | 74 |
| C[C@@H]1CN(c2ccc(C#N)c3ncccc23)C[C@H](CN2CC(c3ccc(N4CCNCC4)cc3)C2)O1 [Example 3, 5-[(2R,6S)-2-methyl-6-[[3-(4-piperazin-1-ylphenyl)azetidin-1-yl]methyl]morpholin-4-yl]quinoline-8-carbonitrile] | 52 |
| C[C@@H]1CN(c2ccc(C#N)c3ncccc23)C[C@H](CN2CC(c3cccc(N4CCNCC4)c3)C2)O1 [Example 4, 5-[(2R,6S)-2-methyl-6-[[3-(3-piperazin-1-ylphenyl)azetidin-1-yl]methyl]morpholin-4-yl]quinoline-8-carbonitrile] | 68 |
| C[C@@H]1CN(c2ccc(C#N)c3ncccc23)C[C@H](CN2CCN(c3ccc(CN)cc3)CC2)O1 [Example 5, 5-[(2S,6R)-2-[[4-[4-(aminomethyl)phenyl]piperazin-1-yl]methyl]-6-methyl-morpholin-4-yl]quinoline-8-carbonitrile] | 198 |
| C[C@@H]1CN(c2ccc(C#N)c3ncccc23)C[C@H](CN2CCN(c3cnc(N4CCNCC4)cn3)CC2)O1 [Example 6, 5-[(2R,6S)-2-methyl-6-[[4-(5-piperazin-1-ylpyrazin-2-yl)piperazin-1-yl]methyl]morpholin-4-yl]quinoline-8-carbonitrile] | 120 |
| COc1cc(N2CCN(C[C@H]3CN(c4ccc(C#N)c5ncccc45)C[C@@H](C)O3)CC2)nc(N2CCNCC2)n1 [Example 91, 5-[(2S,6R)-2-[[4-(6-methoxy-2-piperazin-1-yl-pyrimidin-4-yl)piperazin-1-yl]methyl]-6-methyl-morpholin-4-yl]quinoline-8-carbonitrile] | 102 |
| CO[C@@H]1CN(c2nccc(N3CCN(C[C@H]4CN(c5ccc(C#N)c6ncccc56)C[C@@H](C)O4)CC3)n2)C[C@@H]1N [Example 92, 5-[(2S,6R)-2-[[4-[2-[(3S,4R)-3-amino-4-methoxy-pyrrolidin-1-yl]pyrimidin-4-yl]piperazin-1-yl]methyl]-6-methyl-morpholin-4-yl]quinoline-8-carbonitrile] | 42 |
| C[C@@H]1CN(c2ccc(C#N)c3ncccc23)C[C@H](CN2CCN(c3ncc(F)c(N4CCNCC4)n3)CC2)O1 [Example 94, 5-[(2S,6R)-2-[[4-(5-fluoro-4-piperazin-1-yl-pyrimidin-2-yl)piperazin-1-yl]methyl]-6-methyl-morpholin-4-yl]quinoline-8-carbonitrile] | 51 |
| C[C@@H]1CN(c2ccc(C#N)c3ncccc23)C[C@H](CN2CCN(c3ccnc(N4C[C@@H](F)[C@@H](N)C4)n3)CC2)O1 [Example 95, 5-[(2S,6R)-2-[[4-[2-[(3S,4R)-3-amino-4-fluoro-pyrrolidin-1-yl]pyrimidin-4-yl]piperazin-1-yl]methyl]-6-methyl-morpholin-4-yl]quinoline-8-carbonitrile] | 31 |
